Values joined by “and” are separate entries in the source; they are usually repeats but may differ in a detail not shown here. Equal entries are not always repeated. Numbers after ± are expanded uncertainties.
Settings: Liquid, Transpiration method

C[C@H](O)CO [(+)-(S)-1,2-propanediol]
vapor or sublimation pressure (283.5 K): 0.00427 ± 0.00024 kPa
vapor or sublimation pressure (288.2 K): 0.00685 ± 0.00038 kPa
vapor or sublimation pressure (293.5 K): 0.01187 ± 0.00061 kPa and 0.00968 ± 0.00051 kPa
vapor or sublimation pressure (297.4 K): 0.01371 ± 0.0015 kPa
vapor or sublimation pressure (298.2 K): 0.01924 ± 0.0011 kPa
vapor or sublimation pressure (298.4 K): 0.01891 ± 0.0011 kPa
vapor or sublimation pressure (301.3 K): 0.025 ± 0.0013 kPa
vapor or sublimation pressure (301.4 K): 0.01968 ± 0.001 kPa
vapor or sublimation pressure (303.3 K): 0.02341 ± 0.0012 kPa
vapor or sublimation pressure (303.4 K): 0.02968 ± 0.0015 kPa
vapor or sublimation pressure (305.4 K): 0.02776 ± 0.0015 kPa
vapor or sublimation pressure (306.3 K): 0.03848 ± 0.0021 kPa
vapor or sublimation pressure (306.4 K): 0.0369 ± 0.0021 kPa
vapor or sublimation pressure (309.3 K): 0.04816 ± 0.0025 kPa
vapor or sublimation pressure (310.4 K): 0.05059 ± 0.0028 kPa and 0.04222 ± 0.0024 kPa and 0.04205 ± 0.0024 kPa
vapor or sublimation pressure (312.3 K): 0.06434 ± 0.0034 kPa and 0.06424 ± 0.0034 kPa
vapor or sublimation pressure (313.2 K): 0.06711 ± 0.0034 kPa
vapor or sublimation pressure (313.3 K): 0.06784 ± 0.0034 kPa
vapor or sublimation pressure (313.4 K): 0.05485 ± 0.0027 kPa
vapor or sublimation pressure (315.4 K): 0.06624 ± 0.004 kPa
vapor or sublimation pressure (316.2 K): 0.09048 ± 0.0049 kPa
vapor or sublimation pressure (316.3 K): 0.08971 ± 0.0049 kPa and 0.0869 ± 0.0048 kPa
vapor or sublimation pressure (318.3 K): 0.09934 ± 0.0052 kPa
vapor or sublimation pressure (318.4 K): 0.08522 ± 0.0044 kPa
vapor or sublimation pressure (319.3 K): 0.113 ± 0.0065 kPa
vapor or sublimation pressure (320.4 K): 0.1173 ± 0.006 kPa and 0.09922 ± 0.0051 kPa
vapor or sublimation pressure (320.5 K): 0.09891 ± 0.0051 kPa
vapor or sublimation pressure (321.3 K): 0.1276 ± 0.0077 kPa
vapor or sublimation pressure (322.3 K): 0.1391 ± 0.007 kPa
vapor or sublimation pressure (322.5 K): 0.1397 ± 0.007 kPa
vapor or sublimation pressure (323.4 K): 0.1284 ± 0.0064 kPa
vapor or sublimation pressure (323.5 K): 0.1563 ± 0.0078 kPa and 0.1318 ± 0.0066 kPa
vapor or sublimation pressure (324.5 K): 0.1349 ± 0.007 kPa
vapor or sublimation pressure (325.3 K): 0.1747 ± 0.01 kPa and 0.1406 ± 0.0089 kPa
vapor or sublimation pressure (325.4 K): 0.1734 ± 0.01 kPa
vapor or sublimation pressure (326.4 K): 0.1847 ± 0.0092 kPa
vapor or sublimation pressure (326.5 K): 0.1504 ± 0.0076 kPa
vapor or sublimation pressure (327.3 K): 0.1676 ± 0.011 kPa
vapor or sublimation pressure (327.4 K): 0.1988 ± 0.012 kPa
vapor or sublimation pressure (328.3 K): 0.2178 ± 0.011 kPa
vapor or sublimation pressure (328.4 K): 0.184 ± 0.01 kPa
vapor or sublimation pressure (328.5 K): 0.1824 ± 0.0099 kPa
vapor or sublimation pressure (328.6 K): 0.2155 ± 0.012 kPa
vapor or sublimation pressure (329.5 K): 0.2399 ± 0.013 kPa
vapor or sublimation pressure (331.3 K): 0.2757 ± 0.014 kPa
vapor or sublimation pressure (331.4 K): 0.2346 ± 0.012 kPa
vapor or sublimation pressure (333.3 K): 0.2616 ± 0.014 kPa
vapor or sublimation pressure (335.4 K): 0.303 ± 0.016 kPa
vapor or sublimation pressure (338.4 K): 0.3685 ± 0.019 kPa

— the NIST ThermoML archive (doi:10.1016/j.jct.2009.04.019)
